Measured values from patent publication US20230285405A1, “Pharmaceuticals for Treating or Preventing Nidoviruses and Picornaviruses” (priority 2020, published 2023).
Counter-ions that a name gives are not always drawn. Like-named read-outs stand apart in the source and are kept apart here.

Key:
A549-mRuby cells = assay: Drug screening: effect on cell growth (cell number day 4 / day 0); settings: 10 μM drug; for Growth_1: number of cells at day 4 divided by number of cells at day 0 / toxic_1: repeat #1; for Growth_2: number of cells at day 4 divided by number of cells at day 0 / toxic_2: repeat #2
Method: A549-mRuby cells were seeded (3,000 cells per well) in nine 384-well plates using Multidrop combi. Cells were seeded in a final volume of 30 μl with DMEM+10% BCS. The following day, 20 μl of OC43 were added (MOI 0.3) and incubated at 33° C., 5% CO2 for 1 hour. 50 nl from the Selleck FDA-approved drug library (cat #L1300, Selleck) were added (1:1,000 dilution). Two columns (32 wells) were left uninfected and two columns were treated with DMSO and virus (no drug control). Cells were imaged using the IncuCyte S3 to measure cell numbers at day 0. Cells were incubated for 4 days at 33° C., 5% CO2 and were stained for OC43 nucleoprotein. All the following steps were performed at room temperature. […] The screen was performed twice.
(§1) The following parameters were extracted from the images: number of cells at day 0, number of cells at day 4 and total OC43 staining intensity at day 4. For analysis, OC43 staining intensity was normalized to the number of cells in the well and further normalized to the mean of the no drug controls, which was set to 100. […] For each plate, a drug was considered as a putative hit if it reduced OC43 staining by over 3 standard deviations from the mean of the no drug controls. Drugs were considered hits if they were not toxic and reduced OC43 staining by over 3 standard deviations in both repeats.
(§2) A library of 1,900 clinically used drugs was screened, the drugs either approved for human use or having extensive safety data in humans (Phase 2 or 3 clinical trials), for their ability to inhibit OC43 infection of the human lung epithelial cell line A549 (expressing an H2B-mRuby nuclear reporter). One day after plating, cells were infected at an MOI of 0.3, incubated at 33° C. for 1 hour and drugs were added to a final concentration of 10 μM. Cells were then incubated at 33° C. for 4 days, fixed and stained for the presence of the viral nucleoprotein. The cells were imaged at day 0 (following drug addition) and day 4 (after staining) to determine the drugs effect on cell growth and OC43 infection.

OC43 = assay: Drug screening: OC43 nucleoprotein staining in infected A549-mRuby cells; type: cell-based, human beta coronavirus OC43; settings: for activity at 10 µM: Betacoronavirus 1, OC43, 96 h
Method: A549-mRuby cells were seeded (3,000 cells per well) in nine 384-well plates using Multidrop combi. Cells were seeded in a final volume of 30 μl with DMEM+10% BCS. The following day, 20 μl of OC43 were added (MOI 0.3) and incubated at 33° C., 5% CO2 for 1 hour. 50 nl from the Selleck FDA-approved drug library (cat #L1300, Selleck) were added (1:1,000 dilution). Two columns (32 wells) were left uninfected and two columns were treated with DMSO and virus (no drug control). Cells were imaged using the IncuCyte S3 to measure cell numbers at day 0. Cells were incubated for 4 days at 33° C., 5% CO2 and were stained for OC43 nucleoprotein. All the following steps were performed at room temperature. Cells were fixed in 50 μl 4% PFA/PBS for 15 min, blocked with 50 μl 10% BSA+0.5% Triton X-100 in PBS for 30 minutes, stained with 50 μl anti-OC43 (cat #MAB9013, Milipore) diluted 1:2,000 in 2% BSA+0.1% Triton X-100 in PBS for 1 hour, washed with 50 μl PBS three times, stained with anti-mouse-AlexaFluor488 diluted 1:1,000 in 2% BSA+0.1% Triton X-100 in PBS for 1 hour, washed with 50 μl PBS three times and imaged on the IncuCyte S3 (day 4). The screen was performed twice.
as §1, §2

[1] = 10 μM drug, MOI 0.3, 4 days, OC43 staining normalized to no-drug controls, mean of the two screen repeats, read-out: OC43_mean
[2] = 10 μM drug, MOI 0.3, 4 days, normalized to no-drug controls in the same plate, repeat #1, read-out: OC43_1: % staining of OC43 in screen repeat #1
[3] = 10 μM drug, MOI 0.3, 4 days, normalized to no-drug controls in the same plate, repeat #2, read-out: OC43_2: % staining of OC43 in screen repeat #2
[4] = 10 μM drug, MOI 0.3, 4 days, OC43 staining normalized to no-drug controls, mean of the two screen repeats
[5] = 10 μM drug, MOI 0.3, 4 days, normalized to no-drug controls in the same plate, repeat #1
[6] = 10 μM drug, MOI 0.3, 4 days, normalized to no-drug controls in the same plate, repeat #2

Molecule	Growth_1: number of cells at day 4 divided by number of cells at day 0 (A549-mRuby cells)	toxic_1 (A549-mRuby cells)	Growth_2: number of cells at day 4 divided by number of cells at day 0 (A549-mRuby cells)	toxic_2 (A549-mRuby cells)	hit_1 (OC43; 10 μM drug, repeat #1)	hit_2 (OC43; 10 μM drug, repeat #2)	activity at 10 µM (OC43; [1]) [%]	activity at 10 µM (OC43; [2]) [%]	activity at 10 µM (OC43; [3]) [%]	activity at 10 µM (OC43; read-out: OC43_mean) [%]	OC43_mean (OC43; [4]) [%]	OC43_1: % staining of OC43 in screen repeat #1 (OC43; [5]) [%]	OC43_2: % staining of OC43 in screen repeat #2 (OC43; [6]) [%]
NC(=O)C(c1ccccc1)(c1ccccc1)[C@@H]1CCN(CCc2ccc3c(c2)CCO3)C1 [Darifenacin HBr]	5.2	0	3.4	0	1	1	24.7	14.6	34.8				
COc1ccccc1OCCNCC(O)COc1cccc2[nH]c3ccccc3c12 (stereo not drawn) [Carvedilol]	4.5	0	3.1	0	1	1	24.6	20.1	29.1				
CN1CCCCC1CCN1c2ccccc2Sc2ccc([S+](C)[O-])cc21 (stereo not drawn) [Mesoridazine Besylate]	4.7	0	4.7	0	1	1	20.3	15.6	25				
CN(C)CCC=C1c2ccccc2COc2ccccc21 [Doxepin HCl]	4.9	0	5.7	0	1	1	32.6	29.2	36.1				
CCN(CC)CCCC(C)Nc1ccnc2cc(Cl)ccc12 (stereo not drawn) [Chloroquine Phosphate]		0		0	1	1		11.3	13.1	12.2			
CN1CCC(OC(c2ccccc2)c2ccccc2)CC1 [Diphenylpyraline HCl]	6.0	0	4.2	0	1	1		33.2	51.6	42.4			
Carvedilol Phosphate	4.4	0	2.9	0	1	1					28.9	32.3	25.5
COc1ccc(NC(=O)c2ccc(C(=N)N(C)C)cc2)c(C(=O)Nc2ccc(Cl)cn2)c1 [Betrixaban maleate]	4.6	0	5.7	0	1	1	26.9	32	21.8				
Pizotifen Malate	3.4	0	2.8	0	1	1					25.4	33.3	17.5
OCc1cc(C(O)CNCCCCCCOCCCCc2ccccc2)ccc1O (stereo not drawn) [Salmeterol Xinafoate]	2.9	0	2.5	0	1	1		39.3	20.4	29.9			
CN1CCN(C2=Nc3cc(Cl)ccc3Nc3ccccc32)CC1 [Clozapine]	4.6	0	4.3	0	1	1	31.3	15.8	46.9				
CC(N)C12CC3CC(CC(C3)C1)C2 (stereo not drawn) [Rimantadine Hydrochloride]	4.4	0	5.1	0	1	1	52.6	50.6	54.6				
CNCCCC12CCC(c3ccccc31)c1ccccc12 [Maprotiline HCl]	3.5	0	3.1	0	1	1	26	27	25.1				
CN1CCN(CCCN2c3ccccc3Sc3ccc(Cl)cc32)CC1 [Prochlorperazine Dimaleate]	3.1	0	3.0	0	1	1	22.6	20.2	25				
CN1CCC(COc2cnc(-c3cccc(Cn4nc(-c5cccc(C#N)c5)ccc4=O)c3)nc2)CC1 [Tepotinib (EMD 1214063), Tepotinib]	5.3	0	5.2	0	1	1	28.9	15.3	42.6				
CC[C@H]1OC(=O)[C@H](C)[C@@H](O[C@H]2C[C@@](C)(OC)[C@@H](O)[C@H](C)O2)[C@H](C)[C@@H](O[C@@H]2O[C@H](C)C[C@H](N(C)C)[C@H]2O)[C@](C)(O)C[C@@H](C)CN(C)[C@H](C)[C@@H](O)[C@]1(C)O [Azithromycin]	4.0		4.4								23.4	20.4	26.4
CC(CN1c2ccccc2Sc2ccccc21)N(C)C (stereo not drawn) [Promethazine HCl]	3.0	0	2.4	0	1	1	24.4	19.4	29.5				
CCC(=O)O[C@]1(C(=O)SCF)[C@H](C)C[C@H]2[C@@H]3C[C@H](F)C4=CC(=O)C=C[C@]4(C)[C@@]3(F)[C@@H](O)C[C@@]21C [Fluticasone propionate]	3.8	0	4.2	0	1	1					48.8	48.4	49.2
